Data as given in patent US8603986B2, “Compounds and methods for modulating cadherin-mediated processes” (McGill University, priority 2005, dated 2013).
“Also recorded” adds a separate entry of the source. Marks after values point to notes of the source that are not given here. Blank lines part the entries; values can stand above or below the substance they belong to.

Columns and labels:
[1] = molecular target: T1, N-cadherin/Fc chimeric protein (Homo sapiens, UniProt P19022); test: Cadherin/Fc binding assay: phage ELISA on N-cadherin/Fc; set-up: key to ELISA Phage Binding to N-Cadherin/Fc Chimeric Protein 1.2 mM calcium / ELISA Phage Binding to N-Cadherin/Fc Chimeric Protein 2 mM EDTA / ELISA Phage Binding to Cadherin/Fc Chimeric Proteins N−: +: Phage bound to the chimeric protein; −: No phage bound to the chimeric protein
T1 construct: extracellular domain of human N-cadherin (Asp160-Ala724); purchased R&D Systems, Minneapolis, Minn
T1 sequence (P19022 160-724): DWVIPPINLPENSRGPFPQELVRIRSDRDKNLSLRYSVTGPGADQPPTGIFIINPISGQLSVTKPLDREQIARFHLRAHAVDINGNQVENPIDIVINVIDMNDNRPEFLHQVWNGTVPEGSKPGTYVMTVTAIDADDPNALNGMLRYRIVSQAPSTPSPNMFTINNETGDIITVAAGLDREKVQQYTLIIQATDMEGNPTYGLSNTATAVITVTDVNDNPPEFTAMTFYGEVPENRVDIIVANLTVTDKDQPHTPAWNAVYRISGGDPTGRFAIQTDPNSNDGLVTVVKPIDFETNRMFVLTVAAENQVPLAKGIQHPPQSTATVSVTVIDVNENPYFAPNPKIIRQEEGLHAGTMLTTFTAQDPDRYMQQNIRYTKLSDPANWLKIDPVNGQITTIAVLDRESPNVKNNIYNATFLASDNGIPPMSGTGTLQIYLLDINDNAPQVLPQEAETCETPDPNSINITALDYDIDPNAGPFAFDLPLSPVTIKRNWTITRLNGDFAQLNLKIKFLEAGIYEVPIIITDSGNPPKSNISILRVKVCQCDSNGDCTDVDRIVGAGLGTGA
Text: (§1) The peptide libraries, Ph.D.-C7C™ and Ph.D.-12™ (New England BioLabs) were used in this study. These libraries are composed of 2×10^9 randomized 7 amino acid sequences flanked by cysteine residues and linear 12 amino acid sequences, respectively. The amino acid sequences are incorporated into the minor coat protein, pIII, of M13 phage. The N-cadherin/Fc chimeric protein (R&D Systems, Minneapolis, Minn.) consists of the extracellular domain of human N-cadherin (Asp160-Ala724) and the Fc region of human IgG1. The E-cadherin/Fc chimeric protein (R&D Systems, Minneapolis, Minn.) consists of the extracellular domain of human E-cadherin (Asp155-Ile707) and the Fc region of human IgG1.
The binding of each clone to the cadherin/Fc chimeric proteins was confirmed by ELISA. Wells of ProBind microtiter plates (Falcon) were coated with either N-cadherin/Fc or E-cadherin/Fc chimeric protein (100 ng/well) or human IgG1 (which contains the Fc fragment) (100 ng/well). […] Non-coated wells were also used to exclude any phage that bound to the plastic surface. […] M13 phage without any insert were used to control the non-specific binding of the phage itself to the target. […] […] Horseradish peroxidase substrate, TMB (Sigma), was added to each well (100 μl/well and after color development the reaction was stopped by addition of 100 μl 0.5 M sulphuric acid to each well. The intensity of the color was measured at 450 nm.
(§2) The phage clones shown to bind to the N-cadherin/Fc chimeric protein by ELISA were also evaluated for their ability to bind to E-cadherin/Fc and VE-cadherin/Fc chimeric proteins. The phage clones shown to bind to the E-cadherin/Fc chimeric protein by ELISA were also evaluated for their ability to bind to N-cadherin/Fc and VE-cadherin/Fc chimeric proteins. The same ELISA protocol described in the previous section was used to perform this evaluation with the exception that the wells were coated with either 100 ng N-cadherin/Fc, E-cadherin/Fc or VE-cadherin/Fc chimeric protein (R&D Systems, Minneapolis, Minn.).

[2] = molecular target: T2, E-cadherin/Fc chimeric protein (Homo sapiens, UniProt P12830); test: Cadherin/Fc binding assay: phage ELISA on E-cadherin/Fc; set-up: key: +: Phage bound to the chimeric protein; −: No phage bound to the chimeric protein
T2 construct: extracellular domain of human E-cadherin (Asp155-Ile707); purchased R&D Systems, Minneapolis, Minn
T2 sequence (P12830 155-707): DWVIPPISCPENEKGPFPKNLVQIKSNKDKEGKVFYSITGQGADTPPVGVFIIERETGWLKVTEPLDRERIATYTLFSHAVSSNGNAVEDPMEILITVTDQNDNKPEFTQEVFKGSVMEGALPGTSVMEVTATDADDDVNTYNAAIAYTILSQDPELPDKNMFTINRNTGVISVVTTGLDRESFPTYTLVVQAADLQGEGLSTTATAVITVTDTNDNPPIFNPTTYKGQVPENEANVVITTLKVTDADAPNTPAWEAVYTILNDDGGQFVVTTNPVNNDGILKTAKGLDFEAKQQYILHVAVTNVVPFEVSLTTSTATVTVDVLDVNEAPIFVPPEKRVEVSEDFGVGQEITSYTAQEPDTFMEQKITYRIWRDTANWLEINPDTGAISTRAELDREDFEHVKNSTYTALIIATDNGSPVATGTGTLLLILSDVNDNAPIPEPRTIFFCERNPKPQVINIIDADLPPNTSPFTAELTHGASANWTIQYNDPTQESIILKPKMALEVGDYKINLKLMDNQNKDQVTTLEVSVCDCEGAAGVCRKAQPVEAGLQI
Text: as §1
(§3) The binding of each clone to the cadherin/Fc chimeric proteins was confirmed by ELISA. Wells of ProBind microtiter plates (Falcon) were coated with either N-cadherin/Fc or E-cadherin/Fc chimeric protein (100 ng/well) or human IgG1 (which contains the Fc fragment) (100 ng/well). After blocking the nonspecific sites with TBS containing 3% BSA and 1.2 mM CaCl2 for 1 h at 37° C., phage clones (10^9 pfu) diluted in TBST containing 3% BSA and 1.2 mM CaCl2 (100 μl/well). Non-coated wells were also used to exclude any phage that bound to the plastic surface. After 1 h incubation at room temperature, wells were washed 3 times with TBST containing 3% BSA and 1.2 mM CaCl2. M13 phage without any insert were used to control the non-specific binding of the phage itself to the target. Monoclonal anti-M13 antibody conjugated to horseradish peroxidase (Amersham Biosciences, Piscataway, N.J.) was diluted in TBST containing 3% BSA and 1.2 mM CaCl2 (1:2,000) and added to each well (100 μl/well). After 1 h incubation at room temperature, wells were washed three times with TBST containing 3% BSA and 1.2 mM CaCl2 and once with TBS containing 1.2 mM CaCl2. Horseradish peroxidase substrate, TMB (Sigma), was added to each well (100 μl/well and after color development the reaction was stopped by addition of 100 μl 0.5 M sulphuric acid to each well. The intensity of the color was measured at 450 nm.
as §2

[3] = molecular target: T3, VE-cadherin/Fc chimeric protein (Homo sapiens, UniProt P33151); test: Cadherin specificity: phage ELISA on VE-cadherin/Fc; type: binding; set-up: key: +: Phage bound to the chimeric protein; −: No phage bound to the chimeric protein
T3 construct: purchased R&D Systems, Minneapolis, Minn
T3 sequence (P33151 with tags, fused parts or gaps limits assumed, species assumed): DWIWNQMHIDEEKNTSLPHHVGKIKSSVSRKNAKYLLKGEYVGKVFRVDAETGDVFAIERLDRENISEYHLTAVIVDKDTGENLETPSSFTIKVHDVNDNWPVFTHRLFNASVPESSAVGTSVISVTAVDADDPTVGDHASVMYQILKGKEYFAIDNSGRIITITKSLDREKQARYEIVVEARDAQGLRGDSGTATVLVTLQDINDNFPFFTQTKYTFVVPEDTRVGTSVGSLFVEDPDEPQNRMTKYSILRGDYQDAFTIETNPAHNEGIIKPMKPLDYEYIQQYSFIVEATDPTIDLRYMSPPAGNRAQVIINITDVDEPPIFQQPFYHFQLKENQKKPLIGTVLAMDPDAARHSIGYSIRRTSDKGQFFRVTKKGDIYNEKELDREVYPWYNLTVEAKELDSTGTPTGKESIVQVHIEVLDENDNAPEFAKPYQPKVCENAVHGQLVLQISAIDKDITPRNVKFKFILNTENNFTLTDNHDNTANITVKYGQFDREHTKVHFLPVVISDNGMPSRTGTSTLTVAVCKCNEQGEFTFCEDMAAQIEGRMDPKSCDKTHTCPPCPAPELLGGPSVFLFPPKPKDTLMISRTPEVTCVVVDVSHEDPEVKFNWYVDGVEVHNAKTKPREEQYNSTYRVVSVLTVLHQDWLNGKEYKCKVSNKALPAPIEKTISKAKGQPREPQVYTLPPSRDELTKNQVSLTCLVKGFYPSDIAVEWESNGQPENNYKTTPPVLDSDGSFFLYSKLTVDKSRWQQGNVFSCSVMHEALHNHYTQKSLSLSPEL
Experimental: as §3, §2

[4] = system: SKOV3 human ovarian cancer cells; test: Disruption of SKOV3 cell adhesion in confluent cultures; type: cell-based; set-up: key to Peptide Disrupts Adhesion of SKOV3 cells: +: yes; −: no; conditions: for Peptide Disrupts Adhesion of SKOV3 cells: Table 8 summary; for effect on SKOV3 cell adhesion: confluent cultures, concentration not given
Experimental: SKOV3 human ovarian cancer cells (kind gift from Dr. Riaz Farookhi, McGill University, Montreal, Quebec) were cultured in MEM containing 1.25 μg/ml Fungizone, 100 U/ml penicillin 100 μg/ml streptomycin, 0.1 mM nonessential amino acids, 2 mM L-glutamine, 10 μg/ml ml gentamicin and 10% fetal bovine serum. All culture reagents were purchased from GIBCO (Burlington, ON). To obtain confluent cell cultures, 100,000 cells per well were plated onto a 4 well slide (NalgeNunc, Naperville, Ill.) and incubated for 24 h at 37° C., in a humidified atmosphere (5% CO2).
Depending on their solubility, peptides were dissolved directly in culture medium and added to confluent cell cultures at the indicated concentration, or they were dissolved in dimethylformamide (DMF) to obtain a 100× concentrated solution or in water to obtain a 10× concentrated solution. The peptide stock solutions were further diluted with culture medium to a final working concentration and added to confluent cell cultures. Culture medium containing 1% solvent was used as a control. At the end of the treatment, cells were either examined by phase contrast microscopy, or fixed with 4% paraformaldehyde in PBS and stained with hematoxylin prior to light microscopic examination.
Confluent cultures of SKOV3 cells were incubated in the presence of individual peptides.

[5] = Table 7, Ph.D.-12 clones selected on E-cadherin/Fc
[6] = Table 4, Ph.D.-12 library clones
[7] = Table 2, Ph.D.-C7C library clones
[8] = Table 6, Ph.D.-C7C clones selected on E-cadherin/Fc
[9] = Table 3, clones selected in the absence of calcium

ELISA Phage Binding to Cadherin/Fc Chimeric Proteins N− [1, 5]: +
ELISA Phage Binding to Cadherin/Fc Chimeric Proteins E− [2, 5]: +*
ELISA Phage Binding to Cadherin/Fc Chimeric Proteins VE− [3, 5]: −**
Substance: SWTWHFPESPPP [Ec 12-01]

ELISA Phage Binding to N-Cadherin/Fc Chimeric Protein 1.2 mM calcium [1, 6]: +
ELISA Phage Binding to N-Cadherin/Fc Chimeric Protein 2 mM EDTA [1, 6]: −
ELISA Phage Binding to Cadherin/Fc Chimeric Proteins E− [2, 6]: −
ELISA Phage Binding to Cadherin/Fc Chimeric Proteins VE− [3, 6]: −
Substance: SWTLYTPSGQSK [Nc 12-04]

ELISA Phage Binding to Cadherin/Fc Chimeric Proteins N− [1, 5]: +
ELISA Phage Binding to Cadherin/Fc Chimeric Proteins E− [2, 5]: +
ELISA Phage Binding to Cadherin/Fc Chimeric Proteins VE− [3, 5]: −
Substance: EWTWVFPTTHTS [Ec 12-07]

ELISA Phage Binding to Cadherin/Fc Chimeric Proteins N− [1, 5]: +
ELISA Phage Binding to Cadherin/Fc Chimeric Proteins E− [2, 5]: +
ELISA Phage Binding to Cadherin/Fc Chimeric Proteins VE− [3, 5]: −
Substance: EWDFFWPPTQTP [Ec 12-19]

ELISA Phage Binding to N-Cadherin/Fc Chimeric Protein 1.2 mM calcium [1, 6]: +*
ELISA Phage Binding to N-Cadherin/Fc Chimeric Protein 2 mM EDTA [1, 6]: +
ELISA Phage Binding to Cadherin/Fc Chimeric Proteins E− [2, 6]: −**
ELISA Phage Binding to Cadherin/Fc Chimeric Proteins VE− [3, 6]: −
Substance: HWYITTGPVREK [Nc 12-01]

Further lines, the substance ahead of its results:

Substance: AWQVHYSYVASS [Nc 12-a7]
ELISA Phage Binding to N-Cadherin/Fc Chimeric Protein 1.2 mM calcium [1, 6]: +
ELISA Phage Binding to N-Cadherin/Fc Chimeric Protein 2 mM EDTA [1, 6]: +
ELISA Phage Binding to Cadherin/Fc Chimeric Proteins E− [2, 6]: +
ELISA Phage Binding to Cadherin/Fc Chimeric Proteins VE− [3, 6]: −

Substance: H-RYVCVGAH-NH2 [reference compound]
Peptide Disrupts Adhesion of SKOV3 cells [4]: −
effect on SKOV3 cell adhesion [4]: had no effect on cell adhesion

Substance: WEFSICETC [Nc 5]
ELISA Phage Binding to N-Cadherin/Fc Chimeric Protein 1.2 mM calcium [1, 7]: +
ELISA Phage Binding to N-Cadherin/Fc Chimeric Protein 2 mM EDTA [1, 7]: −
ELISA Phage Binding to Cadherin/Fc Chimeric Proteins E− [2, 7]: −
ELISA Phage Binding to Cadherin/Fc Chimeric Proteins VE− [3, 7]: −

Substance: WTFNFCTAC [Ec a5]
ELISA Phage Binding to Cadherin/Fc Chimeric Proteins N− [1, 8]: +
ELISA Phage Binding to Cadherin/Fc Chimeric Proteins E− [2, 8]: +
ELISA Phage Binding to Cadherin/Fc Chimeric Proteins VE− [3, 8]: −

Substance: WQMVLCPAC [Ec 4]
ELISA Phage Binding to Cadherin/Fc Chimeric Proteins N− [1, 8]: +
ELISA Phage Binding to Cadherin/Fc Chimeric Proteins E− [2, 8]: +
ELISA Phage Binding to Cadherin/Fc Chimeric Proteins VE− [3, 8]: −

Substance: WLQPYFPSY [Nc 1]
phage binding to N-cadherin/Fc chimeric protein by ELISA [1]: positive ELISA signal
ELISA Phage Binding to N-Cadherin/Fc Chimeric Protein 1.2 mM calcium [1, 7]: +*
ELISA Phage Binding to N-Cadherin/Fc Chimeric Protein 2 mM EDTA [1, 7]: −**
ELISA Phage Binding to Cadherin/Fc Chimeric Proteins E− [2, 7]: −
ELISA Phage Binding to Cadherin/Fc Chimeric Proteins VE− [3, 7]: −

Substance: EWTYTFPTAHSI [Ec 12-a18]
ELISA Phage Binding to Cadherin/Fc Chimeric Proteins N− [1, 5]: +
ELISA Phage Binding to Cadherin/Fc Chimeric Proteins E− [2, 5]: +
ELISA Phage Binding to Cadherin/Fc Chimeric Proteins VE− [3, 5]: −

Substance: H-AELRVSSP-NH2 [reference compound]
Peptide Disrupts Adhesion of SKOV3 cells [4]: −
effect on SKOV3 cell adhesion [4]: had no biological activity

Substance: WTMCYPDTC [Ec 7]
ELISA Phage Binding to Cadherin/Fc Chimeric Proteins N− [1, 8]: +
ELISA Phage Binding to Cadherin/Fc Chimeric Proteins E− [2, 8]: +*
ELISA Phage Binding to Cadherin/Fc Chimeric Proteins VE− [3, 8]: −**

Substance: WQVCVGAHC [NoCa11]
phage binding to N-cadherin/Fc chimeric protein by ELISA [1]: good ELISA signal; also recorded: strong ELISA signal
ELISA Phage Binding to N-Cadherin/Fc Chimeric Protein 1.2 mM calcium [1, 9]: +
ELISA Phage Binding to N-Cadherin/Fc Chimeric Protein 2 mM EDTA [1, 9]: +
ELISA Phage Binding to Cadherin/Fc Chimeric Proteins E− [2, 9]: −
ELISA Phage Binding to Cadherin/Fc Chimeric Proteins VE− [3, 9]: −

Substance: WEVRLTEKC [Nc a3]
ELISA Phage Binding to N-Cadherin/Fc Chimeric Protein 1.2 mM calcium [1, 7]: +
ELISA Phage Binding to N-Cadherin/Fc Chimeric Protein 2 mM EDTA [1, 7]: −
ELISA Phage Binding to Cadherin/Fc Chimeric Proteins E− [2, 7]: −
ELISA Phage Binding to Cadherin/Fc Chimeric Proteins VE− [3, 7]: −

Substance: WELRVSSPC [Nc a7]
ELISA Phage Binding to N-Cadherin/Fc Chimeric Protein 1.2 mM calcium [1, 7]: +
ELISA Phage Binding to N-Cadherin/Fc Chimeric Protein 2 mM EDTA [1, 7]: −
ELISA Phage Binding to Cadherin/Fc Chimeric Proteins E− [2, 7]: −
ELISA Phage Binding to Cadherin/Fc Chimeric Proteins VE− [3, 7]: −
